The text below walks through data of US20170119806A1, “[…] LACTONE DERIVATIVES AND METHODS OF MAKING AND USING THEREOF” (OHIO STATE INNOVATION FOUNDATION, priority 2014, published 2017).

The test system of assay [1] is C3-3P NF-κB p65 binding site of the IFNG promoter. The assay can be described thus: EMSA and ChIP of p65 binding to the IFNG promoter. The assay is classed as cell-based, human. The note with it: 10 μM PL-C with IL-12 (10 ng/mL), 12 h, ChIP. The protocol:
(A) Schematic of IFNG promoter potential binding sites for p65 (45). (B) NK cells purified from healthy donors were treated with 10 μM PL-C or DMSO vehicle control in the presence of IL-12 (10 ng/mL) for 12 h. Cell pellets were harvested for nuclear extraction, followed by EMSA with a ^32P-labeled oligonucleotide containing the C3-3P NF-κB p65 binding site of the IFNG promoter. Data shown represent one of three donors with similar results. (C) Cells were treated as described in (B), and the cell pellets were harvested to extract protein for ChIP assay of p65 binding to the IFNG promoter locus C3-3P. Mean of relative association of p65 at the IFNG promoter locus C3-3P from three independent experiments is shown. *p<0.05, compared with cells treated with IL-12 alone. Error bars represent S.D.
EMSA. Nuclear extracts were isolated using a nuclear extract kit, according to the manufacturer's instruction (Active Motif, Carlsbad, Calif.). EMSA was performed as described previously (Bachmeyer C et al. Nucleic Acids Res, 1999, 27, 643-648). […]
Chromatin immunoprecipitation. […] DNA precipitated by the anti-p65 or the normal IgG Abs was quantified by real-time PCR, and values were normalized to input DNA.
(In EMSA bound probe runs differently from free probe, usually more slowly.)

Assay [2] has as its system HT-29 human colon cancer cells. Kind of assay: Cytotoxicity against HT-29 cells. The note with it: read-out: IC50 values toward the HT-29 cells; Table 6; triplicate, two independent experiments.
Procedure: The cytotoxicity of the test compounds was screened against HT-29 cells by a previously reported procedure (Ren Y et al. J. Nat. Prod 2011, 74, 1117-1125). Paclitaxel and etoposide were used as positive controls.
All arylnaphthalene lignans isolated from P. poilanet in the present study and their semi-synthetic analogues were evaluated for their cytotoxicity against HT-29 human colon cancer cells, using paclitaxel as the positive control (Table 6) (Ren Y et al. J. Nat. Prod 2011, 74, 1117-1125).
A further assay deals with TLR1 or TLR6. The assay can be described thus: TLR activation assessment (NF-κB luciferase reporter in HEK293T). The assay is classed as cell-based, human. The settings on record: various concentrations of PL-C, 24 h. Background: A reporter such as luciferase makes a cellular process visible.
The test system of the next assay is NF-κB p65. Kind of assay: Immunoblotting of p65 and p-p65 in NK cells. The note with it: 5 and 10 μM PL-C, 18 h. The class given is cell-based, human. On the procedure: (A) Purified primary human NK cells were treated with 5 and 10 μM PL-C for 18 h. The cells were harvested and lysed for immunoblotting using p65 and p-p65 Abs. β-Actin immunoblotting was included as the internal control. Data shown are for treatment with PL-C alone (top panel) or in combination with IL-12 (10 ng/mL) (middle panel) or IL-15 (100 ng/mL) (bottom panel) and are the representative plots of four donors with similar results. Numbers under each lane represent quantification of p-p65 or p65 via densitometry, after normalizing to β-actin. (B) NKL cells were treated, and data are presented as described in (A). Data from one of three independent experiments with similar results are shown. (C) Purified primary human NK (left panel) or NKL cells (right panel) were cotreated with 10 μM PL-C and IL-12 (10 ng/mL) in the presence or absence of the NF-κB inhibitor TPCK (10 μM) for 18 h. Supernatants were assayed for IFN-γ secretion by ELISA (top panel), and cells were harvested and lysed for immunoblotting of p-p65 (bottom panel). Representative data from one of three donors with the similar data (left panel) and the summary of three independent experiments with similar results (right panel) are shown. **p<0.01. Error bars represent SD.
Immunoblotting. Immunoblotting was performed as described previously (Yu J et al. Immunity 2006, 24, 575-590; Yu J et al. Blood 2010, 115, 274-281). […]
For orientation: A western blot detects proteins with antibodies after separation by electrophoresis.

Each structure is given as a SMILES string.

One may read the IC50 as the point on the concentration scale where inhibition reaches its midpoint. As to `COc1cc2c(OC3OCC(O)C(O)C3O)c3c(c(-c4ccc5c(c4)OCO5)c2cc1OC)C(=O)OC3` (stereo not shown) [Compound 4, Phyllanthusmin C], the “p65 binding to the C3-3P site of the IFNG promoter” value in assay [1] is listed as “enhanced p65 binding to the C3-3P binding site”. For the same compound, the IC50 in assay [2] was determined as 3.2 µM. Further, the “NF-κB luciferase reporter activity in TLR1- or TLR6-transfected 293T cells” value in the assay with TLR1 or TLR6 is “induce luciferase reporter activity in a dose-dependent fashion”. Besides, the “NF-κB p65 phosphorylation in primary NK and NKL cells” value with NF-κB p65 was “increased”.
